According to patent publication US20220220095A1, “N-((HETEROARYL)METHYL)-1-TOSYL-1H-PYRAZOLE-3-CARBOXAMIDE DERIVATIVES AS Kv3 POTASSIUM CHANNEL ACTIVATORS FOR TREATING NEUROLOGICAL AND [sequence] DISORDERS” (H. Lundbeck A/S, priority 2019, published 2022):

Biological target: T1, hKv3.1b (Homo sapiens, UniProt P48547)
T1 construct: expressed in transfected cells
T1 sequence (P48547 1-585 isoform P48547-2): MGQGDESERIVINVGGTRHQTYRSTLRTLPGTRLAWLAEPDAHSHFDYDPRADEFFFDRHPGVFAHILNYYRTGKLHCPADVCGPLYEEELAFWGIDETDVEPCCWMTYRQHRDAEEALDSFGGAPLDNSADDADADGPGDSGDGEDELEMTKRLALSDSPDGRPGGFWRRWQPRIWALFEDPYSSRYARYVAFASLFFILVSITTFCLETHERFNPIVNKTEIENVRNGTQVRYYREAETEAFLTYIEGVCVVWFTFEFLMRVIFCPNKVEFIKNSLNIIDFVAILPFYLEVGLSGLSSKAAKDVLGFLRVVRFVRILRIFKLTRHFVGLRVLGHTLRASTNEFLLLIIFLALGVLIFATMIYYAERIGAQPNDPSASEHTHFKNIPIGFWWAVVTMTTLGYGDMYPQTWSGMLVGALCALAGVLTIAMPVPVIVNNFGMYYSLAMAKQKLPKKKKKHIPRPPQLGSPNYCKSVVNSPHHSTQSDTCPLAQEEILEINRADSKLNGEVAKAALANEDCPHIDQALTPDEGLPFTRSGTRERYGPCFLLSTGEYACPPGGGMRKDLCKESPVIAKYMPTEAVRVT
Experiment: Automated whole-cell patch-clamp (QPatch-16x) on HEK-293 cells stably expressing hKv3.1b: shift of voltage threshold for channel activation
Format: cell-based
Conditions: HEK-293 hKv3.1b; for ECdelta5mV: concentration needed to shift the threshold 5 mV, read out from fitted concentration response curve; for Max Delta threshold: maximum absolute shift of activation threshold to more hyperpolarized potentials at the tested concentrations (0.37, 1.11, 3.33, 10, 30 μM)

ECdelta5mV [nM]	Max Delta threshold [mV]	Structure (SMILES)
7700	12	Cc1cnc(CNC(=O)c2ccn(S(=O)(=O)c3ccccc3Cl)n2)cn1 [Compound 84, 1-(2-chlorophenyl)sulfonyl-N-[(5-methylpyrazin-2-yl)methyl]pyrazole-3-carboxamide]
2400	19	COc1ccc(S(=O)(=O)n2ccc(C(=O)NCc3ncccc3F)n2)cc1 [Compound 86, N-[(3-fluoro-2-pyridyl)methyl]-1-(4-methoxyphenyl)sulfonyl-pyrazole-3-carboxamide]

Second part, the compound before the results:

Structure (SMILES)	ECdelta5mV [nM]	Max Delta threshold [mV]
Cc1cnc(CNC(=O)c2ccn(S(=O)(=O)c3cc(C)c(F)c(C)c3)n2)cn1 [Compound 81, 1-(4-fluoro-3,5-dimethyl-phenyl)sulfonyl-N-[(5-methylpyrazin-2-yl)methyl]pyrazole-3-carboxamide]	3000	17
COc1ccc(S(=O)(=O)n2ccc(C(=O)NCc3cnc(C)cn3)n2)c(Cl)c1 [Compound 82, 1-(2-chloro-4-methoxy-phenyl)sulfonyl-N-[(5-methylpyrazin-2-yl)methyl]pyrazole-3-carboxamide]	1600	29
Cc1cnc(CNC(=O)c2ccn(S(=O)(=O)c3c(C)cc(F)cc3C)n2)cn1 [Compound 83, 1-(4-fluoro-2,6-dimethyl-phenyl)sulfonyl-N-[(5-methylpyrazin-2-yl)methyl]pyrazole-3-carboxamide]	2700	21
